Experimental data as given in article PMC3629977 (Journal of nuclear medicine : official publication, Society …, 2010).
Bridge positions count the residues as written; N and C are the ends. Square brackets hold non-standard residues; d marks the D form. Peptide text beside a SMILES is read from it. * marks the point of attachment. 2Nal = N[C@@H](Cc1ccc2ccccc2c1)C(=O)O; Benzoyl(4-F) = O=C(c1ccc(F)cc1)*; Cit = NC(=O)NCCC[C@H](N)C(=O)O

Legend:
CXCR4 = conditions: cited from earlier work
[1] = tested on: stem cells from the bone marrow; conditions: compared with AMD3100/plerixafor; cited from earlier work
CHO-CXCR4 tumors [2] = conditions: 4-^18F-T140 alone, mice bearing CHO and CHO-CXCR4 tumors; Fig. 5A: 2 h after injection, 50 μCi
CHO-CXCR4 tumors [3] = conditions: in vivo
red blood cells = conditions: mouse, in vivo
[4] = female, athymic nude, mouse, iv, 3 h

Row | SMILES | CXCR4 antagonist selectivity (CXCR4) | in vivo mobilization of stem cells from the bone marrow [1] | PET visualization of tumors (CHO-CXCR4 tumors [2]) | tumor-to-blood ratio (CHO-CXCR4) (CHO-CXCR4 tumors [3]; [4]) | tumor-to-muscle ratio (CHO-CXCR4) (CHO-CXCR4 tumors [3]; [4]) | difference of uptake between CHO-CXCR4 and CXCR4-negative CHO tumors (CHO-CXCR4 tumors [3]) | binding to red blood cells (red blood cells)
1 | N=C(N)NCCC[C@H](NC(=O)[C@@H]1CSSC[C@H](NC(=O)[C@H](Cc2ccc3ccccc3c2)NC(=O)[C@H](CCCNC(=N)N)NC(=O)[C@H](CCCNC(=N)N)NC(=O)c2ccc(F)cc2)C(=O)N[C@@H](Cc2ccc(O)cc2)C(=O)N[C@@H](CCCNC(N)=O)C(=O)N[C@@H](CCCCN)C(=O)N[C@H](CCCCN)C(=O)N2CCC[C@H]2C(=O)N[C@@H](Cc2ccc(O)cc2)C(=O)N[C@@H](CCCNC(=N)N)C(=O)N[C@@H](CCCNC(N)=O)C(=O)N1)C(N)=O [4-F-T140, 4-F-benzoyl-TN14003] ({Benzoyl(4-F)}-RR[2Nal]CY[Cit]K[dK]PYR[Cit]CR-NH2; disulfide 4-13) | highly selective CXCR4 antagonist | increased in vivo mobilization of stem cells from the bone marrow | – | – | – | – | –
2 | N=C(N)NCCC[C@H](NC(=O)[C@@H]1CSSC[C@H](NC(=O)[C@H](Cc2ccc3ccccc3c2)NC(=O)[C@H](CCCNC(=N)N)NC(=O)[C@H](CCCNC(=N)N)NC(=O)c2ccc(F)cc2)C(=O)N[C@@H](Cc2ccc(O)cc2)C(=O)N[C@@H](CCCNC(N)=O)C(=O)N[C@@H](CCCCN)C(=O)N[C@H](CCCCN)C(=O)N2CCC[C@H]2C(=O)N[C@@H](Cc2ccc(O)cc2)C(=O)N[C@@H](CCCNC(=N)N)C(=O)N[C@@H](CCCNC(N)=O)C(=O)N1)C(N)=O [4-^18F-T140, 4-^18F-benzoyl-TN14003] ({Benzoyl(4-F)}-RR[2Nal]CY[Cit]K[dK]PYR[Cit]CR-NH2; disulfide 4-13) | – | – | clearly showed both tumors | 0.19 ± 0.04 | 2.94 ± 0.16 | not statistically significant | bind specifically to red blood cells in vitro and in vivo
